# From US20120328530A1, “TOLUIDINE BLUE DERIVATIVES AS PHOTOSENSITISING COMPOUNDS” (PHARMALUCIA LIMITED, priority 2010, published 2012)
# Key:
# Format in all cases: cell-based
# [1] = test system: Candida albicans (NCPF 8179); assay: Antifungal screening, minimum concentration; conditions: Sabouraud broth and agar, carried out similarly: illuminated twenty minutes, LEDs 660 nm, 6.2 J cm^-2; table does not say light or dark
# Experimental: (§1) The photobactericidal efficacies of the compounds of examples 2a to 2d in addition to that of the known photosensitiser methylene blue were measured against both Gram positive Staphylococcus aureus (NCTC 6571), Enterococcus faecalis (NCIMB 13280) and Propionibacterium acnes (NCTC 737) and Gram negative Escherichia coli (NCTC 10418), Proteus mirabilis (NCIMB 5887) and a clinical strain of Pseudomonas aeruginosa bacteria. Propionibacterium acnes was grown in reinforced clostridial medium. All other strains were grown in Mueller-Hinton Broth and then diluted to a concentration of 10^6 colony-forming units/ml. Aliquots of the strains were then incubated for 1 hour at 37° C. in microtitre trays with various concentrations of photosensitiser in doubling dilutions from 100 μM, with zero photosensitiser concentrations in each case for control purposes. The trays were then either illuminated for twenty minutes using an array of light-emitting diodes (660 nm) giving a light dose of 6.2 J cm^−2 or alternatively foil-covered to provide dark controls. From each well showing an inhibition of growth of the micro-organism, 1 μl was sub-cultured on nutrient agar, using the Miles-Misra method, and incubated for 18 hours at 37° C. The minimum bactericidal concentrations were then determined as the lowest concentration for each photosensitiser giving no bacterial growth.
# Antifungal screening was carried out similarly against the yeast Candida albicans (NCPF 8179), using Sabouraud broth and agar.
# [2] = test system: clinical strain of Pseudomonas aeruginosa; assay: Photobactericidal efficacy, minimum bactericidal concentration; conditions: 10^6 cfu/ml, 1 hour at 37° C. with photosensitiser, illuminated twenty minutes, LEDs 660 nm, 6.2 J cm^-2, table does not say light or dark
# Experimental: as §1
# [3] = test system: Proteus mirabilis (NCIMB 5887); assay: as above; conditions: 10^6 cfu/ml, 1 hour at 37° C. with photosensitiser, illuminated twenty minutes, LEDs 660 nm, 6.2 J cm^-2; table does not say light or dark
# Experimental: as §1
# [4] = test system: Enterococcus faecalis (NCIMB 13280); assay: as above; conditions: 10^6 cfu/ml, 1 hour at 37° C. with photosensitiser, illuminated twenty minutes, LEDs 660 nm, 6.2 J cm^-2; table does not say light or dark
# Experimental: as §1
# [5] = test system: Staphylococcus aureus (NCTC 6571); assay: as above; conditions: NCTC6571, 10^6 cfu/ml, 1 hour at 37° C. with photosensitiser, illuminated twenty minutes, LEDs 660 nm, 6.2 J cm^-2, table does not say light or dark, read-out: minimum concentration needed to achieve the antibacterial activity (minimum bactericidal concentration), S. aureus
# Experimental: as §1
# [6] = test system: Propionibacterium acnes (NCTC 737); assay: as above; conditions: Cutibacterium acnes, NCTC737; reinforced clostridial medium, 1 hour at 37° C. with photosensitiser, illuminated twenty minutes, LEDs 660 nm, 6.2 J cm^-2; table does not say light or dark; read-out: minimum concentration needed to achieve the antibacterial activity (minimum bactericidal concentration), Prop. acnes
# Experimental: as §1
# [7] = test system: Escherichia coli (NCTC 10418); assay: as above; conditions: NCTC10418, 10^6 cfu/ml, 1 hour at 37° C. with photosensitiser, illuminated twenty minutes, LEDs 660 nm, 6.2 J cm^-2, table does not say light or dark, read-out: minimum concentration needed to achieve the antibacterial activity (minimum bactericidal concentration), E. coli
# Experimental: as §1
Structure (SMILES),"minimum concentration needed to achieve the antifungal activity, Candida albicans [1]","minimum concentration needed to achieve the antibacterial activity (minimum bactericidal concentration), Pseudomonas Aeruginosa [2]","minimum concentration needed to achieve the antibacterial activity (minimum bactericidal concentration), Proteus mirabilis [3]","minimum concentration needed to achieve the antibacterial activity (minimum bactericidal concentration), Enterococcus facecalis [4]",MBC [5],MBC [6],MBC [7]
"Cc1cc2c(cc1N)=[SH]c1cc(N(C)C)ccc1N=2 [toluidine blue, Toluidine blue]",12.5 µmol/L,7.36 µM,14.71 µM,7.36 µM,–,–,–
"CCCc1cc2nc3ccc(N(C)C)cc3[s+]c2cc1N [Compound 2b, 3-Amino-7-(dimethylamino)-2-n-propylphenothiazinium hydrogensulphate]",0.78 µmol/L,0.78 µM,5.32 µM,0.33 µM,3.13 µM,0.78 µM,1.32 µM
"CN(C)c1ccc2nc3cc(-c4ccccc4)c(N)cc3[s+]c2c1 [Compound 2d, 3-Amino-7-(dimethylamino)-2-phenylphenothiazinium hydrogensulphate]",0.78 µmol/L,–,–,–,3.13 µM,–,3.13 µM
"CN(C)c1ccc2nc3cc(C(C)(C)C)c(N)cc3[s+]c2c1 [Compound 2c, 3-Amino-2-tert-butyl-7-(dimethylamino)phenothiazinium hydrogensulphate]",3.13 µmol/L,0.39 µM,–,–,3.13 µM,0.78 µM,3.13 µM
CCc1cc2nc3ccc(N(C)C)cc3[s+]c2cc1N [Compound 2a],3.13 µmol/L,3.13 µM,5.50 µM,1.35 µM,3.13 µM,0.78 µM,1.47 µM
